Assay results as given in US6358885B1, “Substituted phenylheterocyclic herbicides” (Mississippi State University, priority 1992, dated 2002).

Assays:
[1] = system: blackgrass; test: Test B preemergence/postemergence greenhouse plant response rating 0 to 10; type: in vivo, Alopecurus myosuroides; settings: 0 to 10 scale
Method in brief: (§1)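 Test chemicals were sprayed onto freshly planted seed and, concurrently, onto young plants between the one and four leaf stage. After a twelve- to sixteen-day greenhouse period, each species was visually compared with untreated controls.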

[2] = system: lambsquarters; test: Test C preemergence/postemergence greenhouse plant response rating 0 to 100; type: in vivo, Chenopodium album; settings: POSTEMERGENCE
Method in brief: (§2)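 Compounds in non-phytotoxic solvent went onto sandy loam before emergence (seeded one day earlier) or onto plants at the one-to-four leaf stage. Duck salad was treated via flood water (~2.5 cm, maintained) over silt loam.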

[3] = system: soybean; test: as above; type: in vivo, Glycine max; settings: POSTEMERGENCE
Method in brief: as §2

[4] = system: velvetleaf; test: Test B preemergence/postemergence greenhouse plant response rating 0 to 10; type: in vivo, Abutilon theophrasti; settings: 0 to 10 scale
Method in brief: as §1

[5] = system: barley; test: as above; type: in vivo, Hordeum vulgare; settings: 0 to 10 scale
Method in brief: as §1

[6] = system: sugar beet; test: Test C preemergence/postemergence greenhouse plant response rating 0 to 100; type: in vivo, Beta vulgaris; settings: POSTEMERGENCE
Method in brief: as §2

[7] = system: giant foxtail; test: Test B preemergence/postemergence greenhouse plant response rating 0 to 10; type: in vivo, Setaria faberii; settings: 0 to 10 scale
Method in brief: as §1

[8] = system: soybean; test: as above; type: in vivo, Glycine max; settings: 0 to 10 scale
Method in brief: as §1

[9] = system: wild buckwheat; test: Test C preemergence/postemergence greenhouse plant response rating 0 to 100; type: in vivo, Polygonum convolvulus; settings: POSTEMERGENCE
Method in brief: as §2

[10] = system: crabgrass; test: Test B preemergence/postemergence greenhouse plant response rating 0 to 10; type: in vivo, Digitaria spp.; settings: 0 to 10 scale
Method in brief: as §1

[11] = system: rape; test: as above; type: in vivo, Brassica napus; settings: 0 to 10 scale
Method in brief: as §1

[12] = system: cheatgrass; test: as above; type: in vivo, Bromus secalinus; settings: 0 to 10 scale
Method in brief: as §1

[13] = system: ryegrass; test: Test C preemergence/postemergence greenhouse plant response rating 0 to 100; type: in vivo, Lolium multiflorum; settings: POSTEMERGENCE
Method in brief: as §2

[14] = system: purple nutsedge; test: Test B preemergence/postemergence greenhouse plant response rating 0 to 10; type: in vivo, Cyperus rotundus; settings: 0 to 10 scale
Method in brief: as §1

[15] = system: lambsquarters; test: as above; type: in vivo, Chenopodium album; settings: 0 to 10 scale
Method in brief: as §1

[16] = system: barley; test: Test C preemergence/postemergence greenhouse plant response rating 0 to 100; type: in vivo, Hordeum vulgare; settings: POSTEMERGENCE
Method in brief: as §2

[17] = system: pigweed; test: as above; type: in vivo, Amaranthusretroflexus; settings: POSTEMERGENCE
Method in brief: as §2

[18] = system: chickweed; test: as above; type: in vivo, Stellaria media; settings: POSTEMERGENCE
Method in brief: as §2

Compound: C#CCN1C(=O)COc2cc(F)c(-c3nn4c(c3Br)CCCC4)cc21 [Compound 56]
- Plant response rating, Blackgrass ([1]; POSTEMERGENCE, Rate 10 g/ha): 6
- Plant response rating, Blackgrass ([1]; POSTEMERGENCE, Rate 50 g/ha): 7
- Plant response rating, Blackgrass ([1]; PREEMERGENCE, Rate 10 g/ha): 3
- Plant response rating, Blackgrass ([1]; PREEMERGENCE, Rate 50 g/ha): 6
- Plant response rating Lambsquarters ([2]; 62 g/ha, 0 to 100 scale): 100
- Plant response rating (0 to 100), Lambsquarters ([2]; Rate 1 g/ha): 85
- Plant response rating (0 to 100), Lambsquarters ([2]; Rate 4 g/ha): 100
- Plant response rating (0 to 100), Lambsquarters ([2]; Rate 16 g/ha): 100
- Plant response rating, Soybean ([3]; 62 g/ha, 0 to 100 scale): 95
- Plant response rating (0 to 100), Soybean ([3]; Rate 1 g/ha): 40
- Plant response rating (0 to 100), Soybean ([3]; Rate 4 g/ha): 60
- Plant response rating (0 to 100), Soybean ([3]; Rate 16 g/ha): 90
- Plant response rating, Velvetleaf ([4]; POSTEMERGENCE, Rate 10 g/ha): 9
- Plant response rating, Velvetleaf ([4]; POSTEMERGENCE, Rate 50 g/ha): 9
- Plant response rating, Velvetleaf ([4]; PREEMERGENCE, Rate 50 g/ha): 10
- Plant response rating, Barley ([5]; POSTEMERGENCE, Rate 10 g/ha): 6
- Plant response rating, Barley ([5]; POSTEMERGENCE, Rate 50 g/ha): 7
- Plant response rating, Barley ([5]; PREEMERGENCE, Rate 10 g/ha): 0
- Plant response rating, Barley ([5]; PREEMERGENCE, Rate 50 g/ha): 2
- Plant response rating, Sugar beet ([6]; 62 g/ha, 0 to 100 scale): 100
- Plant response rating (0 to 100), Sugar beet ([6]; Rate 1 g/ha): 100
- Plant response rating (0 to 100), Sugar beet ([6]; Rate 4 g/ha): 100
- Plant response rating (0 to 100), Sugar beet ([6]; Rate 16 g/ha): 100
- Plant response rating, Giant foxtail ([7]; POSTEMERGENCE, Rate 10 g/ha): 4
- Plant response rating, Giant foxtail ([7]; POSTEMERGENCE, Rate 50 g/ha): 6
- Plant response rating, Giant foxtail ([7]; PREEMERGENCE, Rate 10 g/ha): 0
- Plant response rating, Giant foxtail ([7]; PREEMERGENCE, Rate 50 g/ha): 0
- Plant response rating, Soybean ([8]; POSTEMERGENCE, Rate 10 g/ha): 9
- Plant response rating, Soybean ([8]; POSTEMERGENCE, Rate 50 g/ha): 8
- Plant response rating, Soybean ([8]; PREEMERGENCE, Rate 50 g/ha): 0
- Plant response rating, Wild buckwheat ([9]; 62 g/ha, 0 to 100 scale): 100
- Plant response rating (0 to 100), Wild buckwheat ([9]; Rate 1 g/ha): 100
- Plant response rating (0 to 100), Wild buckwheat ([9]; Rate 4 g/ha): 100
- Plant response rating (0 to 100), Wild buckwheat ([9]; Rate 16 g/ha): 100
- Plant response rating, Crabgrass ([10]; POSTEMERGENCE, Rate 10 g/ha): 4
- Plant response rating, Crabgrass ([10]; POSTEMERGENCE, Rate 50 g/ha): 6
- Plant response rating, Crabgrass ([10]; PREEMERGENCE, Rate 10 g/ha): 0
- Plant response rating, Crabgrass ([10]; PREEMERGENCE, Rate 50 g/ha): 3
- Plant response rating, Rape ([11]; POSTEMERGENCE, Rate 10 g/ha): 10
- Plant response rating, Rape ([11]; POSTEMERGENCE, Rate 50 g/ha): 10
- Plant response rating, Rape ([11]; PREEMERGENCE, Rate 50 g/ha): 3
- Plant response rating, Cheatgrass ([12]; POSTEMERGENCE, Rate 10 g/ha): 5
- Plant response rating, Cheatgrass ([12]; POSTEMERGENCE, Rate 50 g/ha): 6
- Plant response rating, Cheatgrass ([12]; PREEMERGENCE, Rate 10 g/ha): 5
- Plant response rating, Cheatgrass ([12]; PREEMERGENCE, Rate 50 g/ha): 5
- Plant response rating Ryegrass ([13]; 62 g/ha, 0 to 100 scale): 50
- Plant response rating (0 to 100), Ryegrass ([13]; Rate 1 g/ha): 20
- Plant response rating (0 to 100), Ryegrass ([13]; Rate 4 g/ha): 40
- Plant response rating (0 to 100), Ryegrass ([13]; Rate 16 g/ha): 40
- Plant response rating, Nutsedge ([14]; POSTEMERGENCE, Rate 10 g/ha): 4
- Plant response rating, Nutsedge ([14]; POSTEMERGENCE, Rate 50 g/ha): 7
- Plant response rating, Nutsedge ([14]; PREEMERGENCE, Rate 50 g/ha): 4
- Plant response rating, Lambsquarter ([15]; POSTEMERGENCE, Rate 10 g/ha): 10
- Plant response rating, Lambsquarter ([15]; POSTEMERGENCE, Rate 50 g/ha): 10
- Plant response rating, Lambsquarter ([15]; PREEMERGENCE, Rate 50 g/ha): 10
- Plant response rating Barley Igri ([16]; 62 g/ha, 0 to 100 scale): 50
- Plant response rating (0 to 100), Barley Igri ([16]; Rate 1 g/ha): 30
- Plant response rating (0 to 100), Barley Igri ([16]; Rate 4 g/ha): 30
- Plant response rating (0 to 100), Barley Igri ([16]; Rate 16 g/ha): 50
- Plant response rating Pigweed ([17]; 62 g/ha, 0 to 100 scale): 100
- Plant response rating (0 to 100), Pigweed ([17]; Rate 1 g/ha): 100
- Plant response rating (0 to 100), Pigweed ([17]; Rate 4 g/ha): 100
- Plant response rating (0 to 100), Pigweed ([17]; Rate 16 g/ha): 100
- Plant response rating, Chickweed ([18]; 62 g/ha, 0 to 100 scale): 100
- Plant response rating (0 to 100), Chickweed ([18]; Rate 1 g/ha): 65
- Plant response rating (0 to 100), Chickweed ([18]; Rate 4 g/ha): 80
- Plant response rating (0 to 100), Chickweed ([18]; Rate 16 g/ha): 100
